From patent US20250032477A1, “COMPOUNDS, PHARMACEUTICAL COMPOSITIONS, AND METHODS FOR THE TREATMENT, PREVENTION, OR MANAGEMENT OF HYPERPROLIFERATIVE DISORDERS” (VINCERX PHARMA GMBH, priority 2021, published 2025)
Read-outs that look alike come from different tables or passages of the source.

Key:
[1] = tested on: SUM149; experiment: Cytotoxicity in vitro in the presence and absence of elastase (MTT); type: cell-based
How it was run: (§1)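 Cells seeded 24 h beforehand, then treated in triplicate with compound (10^−5 to 10^−13 M) alone or with 10 nM elastase for 72 h at 37 °C. Proliferation measured by MTT (4 h reagent, overnight lysis, absorbance 570 nm), normalised to untreated cells.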

[2] = tested on: 786-O; experiment: as above; type: cell-based, human
How it was run: as §1

[3] = tested on: HT29; experiment: as above; type: cell-based, human
How it was run: as §1

[4] = tested on: NCI H292; experiment: as above; type: cell-based, human
How it was run: as §1

[5] = type: physicochemical
Text: pH dependent ring-opening by hydrolysis of the lactone ring is an issue in the camptothecin class of agents. It is a pH dependent equilibrium between closed lactone form and ring-opened hydroxy acid form which is shifted to the closed ring at acidic pH and to the opened form under basic conditions. Only the lactone form is active. […] The closed and hydrolyzed open forms are differentiable by mass using the LC-MS methods described herein.
Method for acidic eluent: System MS: Waters TOF instrument; System UPLC: Waters Acquity I-CLASS; Column: Waters Acquity UPLC HSS T3 1.8 μm 50×1 mm; Eluent A: 1 L Water+0.100 ml 99% Formic acid (pH 3.4); Eluent B: 1 L Acetonitrile+0.100 ml 99% Formic acid; Gradient: 0.0 min 90% A→1.2 min 5% A→2.0 min 5% A Oven: 50° C.; Flow: 0.40 ml/min; UV-Detection: 210 nm.
Method for basic eluent: System MS: Thermo Scientific FT-MS; System UHPLC+: Thermo Scientific UltiMate 3000; Column: Waters, BEH c18 1.7μ, 2.1×50 mm, Eluent A: 1 L Water+1.0 mL (25% Ammonia) (pH of eluent A=10.2); Eluent B: 1 L Acetonitrile; Gradient: 0.0 min 5% B→2.5 min 95% B→3.5 min 95% B; Oven: 50° C.; Flow: 0.90 ml/min; UV-Detection: 210 nm/Optimum Integration Path 210-300 nm.

| SMILES | IC50 ([1]; SUM149 cells, with 10 nM elastase, 72 h, MTT, read-out: SUM149 IC50 w elastase) [nM] | IC50 ([1]; SUM149 cells, without elastase, 72 h, MTT, read-out: SUM149 IC50 w/o) [nM] | IC50 ([2]; 786-O cells, with 10 nM elastase, 72 h, MTT, read-out: 786-O IC50 w elastase) [nM] | IC50 ([2]; 786-O cells, without elastase, 72 h, MTT, read-out: 786-O IC50 w/o) [nM] | IC50 ([3]; HT29 cells, with 10 nM elastase, 72 h, MTT, read-out: HT29 IC50 w elastase) [nM] | IC50 ([3]; HT29 cells, without elastase, 72 h, MTT, read-out: HT29 IC50 w/o) [nM] | IC50 ([4]; NCI H292 cells, with 10 nM elastase, 72 h, MTT, read-out: NCI H292 IC 50 w elastase) [nM] | IC50 ([4]; NCI H292 cells, without elastase, 72 h, MTT, read-out: NCI H292 IC 50 w/o) [nM] | Lactone ring form detected by LC-MS, acidic eluent ([5]; acidic eluent (pH 3.4), UV and mass detection) | Lactone ring form detected by LC-MS, basic eluent ([5]; basic eluent (pH of eluent A=10.2), UV and mass detection) | IC50 ([1]; read-out: SUM149 IC50 w elastase) [nM] | IC50 ([1]; read-out: SUM149 IC50 w/o) [nM] | IC50 ([2]; read-out: 786-O IC50 w elastase) [nM] | IC50 ([2]; read-out: 786-O IC50 w/o) [nM] | IC50 ([3]; read-out: HT29 IC50 w elastase) [nM] | IC50 ([3]; read-out: HT29 IC50 w/o) [nM] | IC50 ([4]; read-out: NCI H292 IC 50 w elastase) [nM] | IC50 ([4]; read-out: NCI H292 IC 50 w/o) [nM] | Lactone ring form detected by LC-MS, acidic eluent ([5]; pH 3.4) |
| --- | --- | --- | --- | --- | --- | --- | --- | --- | --- | --- | --- | --- | --- | --- | --- | --- | --- | --- | --- |
| CCCNC(=O)Nc1cccc(S(=O)(=O)Nc2cccc([C@@H](CC(=O)[O-])NC(=O)Nc3ccc(NC(=O)NCCOCCOCCOCCC(=O)N[C@@H](CC(=O)[O-])C(=O)N4CCC[C@H]4C(=O)N[C@H](C(=O)O[C@]4(CC)C(=O)OCc5c4cc4n(c5=O)Cc5c-4nc4cc(F)c(C)c6c4c5[C@@H](NC(C)=O)CC6)C(C)C)cc3)c2)c1.[Na+].[Na+] [Compound 2, disodium (1S,9S)-1-acetamido-9-ethyl-5-fluoro-4-methyl-10,13-dioxo-2,3,9,10,13,15-hexahydro-1H,12H-benzo[de]pyrano[3′,4′:6,7]indolizino[1,2-b]quinolin-9-yl 1-[(2S)-2-(carboxylatomethyl)-17-{4-[({(1R)-2-carboxylato-1-[3-({3-[(propylcarbamoyl)amino]benzene-1-sulfonyl}amino)phenyl]ethyl}carbamoyl)amino]anilino}-4,17-dioxo-7,10,13-trioxa-3,16-diazaheptadecanan-1-oyl]-L-prolyl-L-valinate] | 0.01 to 0.1 | 1.1 to 10 | 0.01 to 0.1 | 10 to 100 | 0.1 to 1 | > 100 | 0.1 to 1 | 1.1 to 10 | only the closed form (201) | No open form (203) was detected | – | – | – | – | – | – | – | – | – |
| CCCNC(=O)Nc1cccc(S(=O)(=O)Nc2cccc([C@@H](CC(=O)O)NC(=O)Nc3ccc(NC(=O)NCCOCCOCCOCCC(=O)N[C@@H](CC(=O)O)C(=O)N4CCC[C@H]4C(=O)N[C@H](C(=O)O[C@]4(CC)C(=O)OCc5c4cc4n(c5=O)Cc5c-4nc4cc(F)c(C)c6c4c5[C@@H](N)CC6)C(C)C)cc3)c2)c1 [Compound 4, (1S,9S)-1-amino-9-ethyl-5-fluoro-4-methyl-10,13-dioxo-2,3,9,10,13,15-hexahydro-1H,12H-benzo[de]pyrano[3′,4′:6,7]indolizino[1,2-b]quinolin-9-yl N-(14-{4-[({(1R)-2-carboxy-1-[3-({3-[(propylcarbamoyl)amino]benzene-1-sulfonyl}amino)phenyl]ethyl}carbamoyl)amino]anilino}-14-oxo-4,7,10-trioxa-13-azatetradecanan-1-oyl)-L-alpha-aspartyl-L-prolyl-L-valinate] | – | – | – | – | – | – | – | – | – | – | < 0.01 | 1.1 to 10 | 0.01 to 0.1 | 1.1 to 10 | 0.01 to 0.1 | 10 to 100 | 0.01 to 0.1 | 1.1 to 10 | only the closed form (301) was detected |
